Assay results as given in US5916906A, “Compositions comprising nicotinylalanine and an inhibitor of glycine conjugation or vitamin B6” (priority 1997, dated 1999).

Experiment: Urinary N-methylnicotinamide in rats treated with nicotinylalanine (literature)
Type: in vivo
Settings: following nicotinylalanine injection, inferred from urinary N-methylnicotinamide
From the text: As discussed above, these benefits of nicotinylalanine treatment are applicable to other diseases besides neurodegeneration. R. H. Decker, et al. (ibid) reported a 4-5 fold increase in N-methylnicotinamide levels in the urine of rats treated with nicotinylalanine. Since N-methylnicotinamide is a major urinary excretion product of nicotinamide in the rat, increases in the endogenous levels of nicotinamide following nicotinylalanine injection are at least 5 fold.

## NC(CC(=O)c1cccnc1)C(=O)O (racemic) [NAL, γ-(3-pyridyl)-γ-oxo-α-aminobutyrate]
  Increase in endogenous nicotinamide levels: at least 5 fold
